In patent EP0308913A2, “2,6-Methanopyrrolo-3-benzazocines, a process and intermediates for their preparation and their use as medicaments” (HOECHST-ROUSSEL PHARMACEUTICALS INCORPORATED, priority 1987, dated 1989):

tested on: mice; assay: modified phenyl-p-quinone writhing assay in mice (analgesia); type: in vivo; settings: Mus musculus, sc; male CD-1 mice; test compound s.c. at peak time before phenyl-p-quinone; calculated ED50 by linear regression; read-out: Analgesic Activity (Inhibition of Writhing ED5Ø (mg/kg, s.c.)) (converted)
Protocol: The 2,6-methanopyrrolo-3-benzazocines of this invention are useful as analgetics due to their ability to alleviate pain in mammals. The procedure employed to determine analgetic utility is a modification of the phenyl-p-quinone writhing assay in mice, a standard assay for analgesia [Proc. Soc. Exptl. Bio. Med., 95 729 (1957)]. In the modified procedure phenyl-p-benzoquinone (Eastman, 12.5 mg) is dissolved in 5 ml of 95% ethanol and the solution is diluted to a total volume of 100 ml with distilled water. The solution is administered to the subject mice […] at a dose of 10 ml per kg of body weight. A characteristic "writh", an inward rotation of one or more feet with twisting and turning of the trunk, drawing in of the abdominal wall, lordosis and arching of the back, is produced.
A total of 28 male mice (Charles River, CD-1), weighing 18 to 30 grams, are employed for a time response. The subject animals receive food and water ad libitum. Test compounds are dissolved in distilled water, or suspended in distilled water containing one drop of a suitable surfactant, such as Tween-80.
Four groups of five animals (20 animals) are given the test compound subcutaneously at 15, 30, 45 and 60 minutes prior to administration of the phenyl-p-quinone. Four control groups of 2 animals (8 animals) receive an equal volume of the vehicle. After the administration of the phenyl-p-quinone, the mice are placed separately in one liter beakers, and after five minutes, are observed for ten minutes. The number of writhes for each animal is recorded. The following formula is used to compute the percent inhibition: [formula]
The time period with the greatest percent of inhibition is considered the peak time. A dose range determination is generally reserved for those compounds which inhibit writhing by greater than 65-70% at the screening dose.
A dose range determination is run in the same manner as the time response except 10 animals per group are tested at the peak time of test drug activity. Fifty animals, 4 test drug groups, and a vehicle control are employed. Animals are dosed and tested in a randomized manner. A calculated ED₅₀, i.e., the dose at which 50% inhibition of writhing is produced, is determined by a computer linear regression analysis. The calculated subcutaneous (s.c.) dose effecting an approximately 50% inhibition of writhing (ED₅₀) in mice produced in this assay is as follows: […]

Q: Which ED50 does the source give for `CC1C2Cc3cc4cc[nH]c4cc3C1(C)CCN2C` (stereo not shown) [1,2,3,4,5,6-Hexahydro-3,6,12-trimethyl-2,6-methano-8H-pyrrolo[2,3-i][3]benzazocine] here?
A: Its ED50 is 29.5 mg/kg.

Q: With `CC1C2Cc3c(ccc4[nH]ccc34)C1(C)CCN2C` (stereo not shown) [1,2,3,4,5,6-Hexahydro-3,6,12-trimethyl-2,6-methano-9H-pyrrolo[2,3-j][3]benzazocine] as the compound, how does the ED50 read?
A: Its ED50 is 30.4 mg/kg.

Q: For `CC1C2Cc3c(ccc4c3C(=O)C(=O)N4)C1(C)CCN2C` (stereo not shown) [1,2,3,4,5,6-Hexahydro-3,6,12-trimethyl-2,6-methanopyrrolo[2,3-j][3]benzazocine-10,11(9H)-dione], which ED50 is on record?
A: The ED50 was 24.3 mg/kg.

Q: How did the ED50 turn out when `CC1C2Cc3ccc4[nH]ccc4c3C1(C)CCN2C` (stereo not shown) [1,2,3,4,5,6-hexahydro-3,6,12-trimethyl-2,6-methano-9H-pyrrolo[3,2-h][3]benzazocine] was run?
A: Its ED50 is 0.6 mg/kg.

Q: With `CC1C2Cc3cc4[nH]ccc4cc3C1(C)CCN2C` (stereo not shown) [1,2,3,4,5,6-hexahydro-3,6,12-trimethyl-2,6-methano-10H-pyrrolo[3,2-i][3]benzazocine] as the compound, how does the ED50 read?
A: The ED50 was 1.8 mg/kg.

Q: `CC1C2Cc3cc4c(cc3C1(C)CCN2C)NCC4` (stereo not shown) [1,2,3,4,5,6,9,10-Octahydro-3,6,12-trimethyl-2,6-methano-8H-pyrrolo[2,3-i][3]benzazocine] was tested. Which ED50 did it give?
A: The ED50 was 35.5 mg/kg.

Q: Which ED50 does the source give for `CC(C)=CCN1CCC2(C)c3cc(O)ccc3CC1C2C` (stereo not shown) [pentazocine, reference compound] here?
A: The ED50 was 1.3 mg/kg.
